Test results from patent US20230225988A1, “ANTIVIRAL USE OF CALIXARENES” (CEBINA GmbH, priority 2020, published 2023).
Read-outs that look alike come from different tables or passages of the source.

How the values were obtained:
[1] = test system: HCoV 229E; settings: Geller et al., Antiviral Research 2010; cited from earlier work
[2] = test system: human nasal epithelial cells (MucilAir Pool); settings: non-infected cells, LDH release from basal wash
[3] = test system: influenza H1N1; type: cell-based; settings: day 4 post infection, CX-1 500 μM versus buffer treated cells (FIG. 5)
[4] = test system: SARS-CoV-2; assay: Microscopic examination of the cytopathogenic effect in SARS-CoV-2 infected Vero E6 cells
[5] = test system: influenza H1N1; type: cell-based; settings: CX-1 500 μM apical
[6] = test system: SARS-CoV-2; assay: PCR quantification of SARS-CoV-2 viral particles in supernatants of infected Vero E6 cells; settings: for viral particle number, Sample #1 / viral particle number, Sample #2 / viral particle number, Sample #3: Vero E6, MOI 0.01; for viral particle number, average: average of triplicate
[7] = 24 h post-infection, versus buffer treated cells (FIG. 4 panel A)
[8] = 48 h post infection, versus buffer treated cells (FIG. 4 panel B)
[9] = CX-1 500 μM, 24 h post-infection, prophylactic setting
[10] = CX-1 500 μM, 48 h post-infection, prophylactic setting

Molecule	activity against HCoV 229E [1]	cytotoxicity [2]	cilia beating frequency [3]	protection of infected cells from dying (cytopathogenic effect, microscopy) ([4]; prophylactic setting, 500, 100 or 20 μM, 48 h post infection (FIG. 1))	protection of infected cells from dying (cytopathogenic effect, microscopy) ([4]; therapeutic setting, CX-1 added after 30 min infection, 48 h post infection (FIG. 2))	decrease in viral genome copy [5, 7]	reduction in viral genome copy [5, 7]	decrease in viral genome copy [5, 8]	reduction in viral genome copy [5, 8]	reduction in viral genome copy number ([6]; 50 μM CX-1, preventive setting (FIG. 3))	viral particle number, Sample #1 [6, 9]	viral particle number, Sample #2 [6, 9]	viral particle number, Sample #3 [6, 9]	viral particle number, average [6, 9]	viral particle number, Sample #1 [6, 10]	viral particle number, Sample #2 [6, 10]	viral particle number, Sample #3 [6, 10]	viral particle number, average [6, 10]	potency (reduction in viral particles) ([6]; CX-1 500 μM, 48 h post-infection, prophylactic setting, versus virus only)	reduction in viral genome copy number ([6]; lower dilutions of CX-1, preventive setting, versus infected non-treated control (FIG. 3))
1,3-bis(bithiazolyl)-tetra-para-sulfonato-calix[4]arene [C[4]S-BTZ]	very effective	–	–	–	–	–	–	–	–	–	–	–	–	–	–	–	–	–	–	–
O=S(=O)(O)c1cc2c(O)c(c1)Cc1cc(S(=O)(=O)O)cc(c1O)Cc1cc(S(=O)(=O)O)cc(c1O)Cc1cc(S(=O)(=O)O)cc(c1O)C2 [CX-1, 5,11,17,23-sulfonato-25,26,27,28-tetrahydroxycalix[4]arene]	–	no cytotoxicity	significantly higher	significantly protected from dying	significantly protected from dying	−0.9 log	88%	~0.8 log	80.5%	30%	0.00 viral particle number/μl	0.00 viral particle number/μl	1.48 viral particle number/μl	0.49 viral particle number/μl	11.10 viral particle number/μl	15.00 viral particle number/μl	8.63 viral particle number/μl	11.57 viral particle number/μl	95%	over 90%
O=S(=O)(O)c1cc2c(O)c(c1)Cc1cc(S(=O)(=O)O)cc(c1O)Cc1cc(S(=O)(=O)O)cc(c1O)Cc1cc(S(=O)(=O)O)cc(c1O)C2 [C[4]S, tetra-para-sulfonato-calix[4]arene]	only very weak activity	–	–	–	–	–	–	–	–	–	–	–	–	–	–	–	–	–	–	–
